Measurements: paper PMC9097188, “Design, Synthesis, and Molecular Modeling Studies of a Novel Benzimidazole as an Aromatase Inhibitor” (ACS Omega, 2022)

What was measured:
[1] = tested on: HeLa (cervical cell line); test: MTT cytotoxicity assay, HeLa; assay type: cell-based; conditions: Homo sapiens, mean of four independent studies, read-out: IC50 against HeLa
Procedure: (§1) In this study, all compounds were tested for antiproliferative activity using an MTT assay with doxorubicin as a control against MCF-7 (human breast adenocarcinoma cell line), A549 (lung carcinoma cell line), HepG2 (human liver carcinoma cell line), HeLa (cervical cell line), and C6 (rat glioma cell line) cell lines. Table 1 summarizes the results of four independent studies as the mean IC50 value (half-maximum inhibitory concentration).
(§2) MTT tests were used to screen the anticancer activities of compounds 5a–i. The MTT assays were carried out as stated previously.[16],[17] The anticancer activity of the final compounds was tested on […]: A549 (lung carcinoma cell line), HeLa (cervical cell line), MCF-7 (human breast adenocarcinoma cell line), HepG2 (human liver carcinoma cell line), C6 (rat glioma cell line), and NIH3T3 […] (mouse embryo fibroblast cell line). In the MTT experiments, doxorubicin and Hoechst 33342 were employed as reference drugs.

[2] = tested on: A549 (lung carcinoma cell line); test: MTT cytotoxicity assay, A549; assay type: cell-based; conditions: Homo sapiens, mean of four independent studies, read-out: IC50 against A549
Procedure: as §1, §2

[3] = tested on: HepG2 (human liver carcinoma cell line); test: MTT cytotoxicity assay, HepG2; assay type: cell-based; conditions: mean of four independent studies, read-out: IC50 against HepG2
Procedure: as §1, §2

[4] = tested on: C6 (rat glioma cell line); test: MTT cytotoxicity assay, C6; assay type: cell-based; conditions: mean of four independent studies, read-out: IC50 against C6
Procedure: as §1, §2

[5] = tested on: MCF-7 (human breast adenocarcinoma cell line); test: MTT cytotoxicity assay, MCF-7; assay type: cell-based; conditions: Homo sapiens, MCF7, MTT assay, mean of four independent studies; read-out: IC50 against MCF-7
Procedure: as §1, §2

aromatase = conditions: 3D-QSAR data set, IC50 converted to pIC50; SI reference list; cited from earlier work

With COc1ccc(-c2nc3ccc(-c4nnc(SCC(=O)N5CCN(Cc6ccc(Cl)cc6)CC5)o4)cc3[nH]2)cc1 [5e, 2-((5-(2-(4-Methoxyphenyl)-1H-benzo[d]imidazol-6-yl)-1,3,4-oxadiazol-2-yl)thio)-1-(4-(4-chlorobenzyl)piperazin-1-yl)ethan-1-one] the IC50 [1] was ≥ 100 µM, the melting point was 138.2 to 140.1 °C and the IC50 [2] was ≥ 100 µM. For the same compound, the IC50 [3] was ≥ 100 µM, the IC50 [4] was ≥ 100 µM and the IC50 [5] was 45.6 ± 2.11 µM.
For COc1ccc(-c2nc3ccc(-c4nnc(SCC(=O)N5CCN(Cc6ccc(F)cc6)CC5)o4)cc3[nH]2)cc1 [5f, 2-((5-(2-(4-Methoxyphenyl)-1H-benzo[d]imidazol-6-yl)-1,3,4-oxadiazol-2-yl)thio)-1-(4-(4-fluorobenzyl)piperazin-1-yl)ethan-1-one], the IC50 [1] was ≥ 100 µM, the melting point was 133.4 to 135.8 °C and the IC50 [2] was ≥ 100 µM. The IC50 [3] was ≥ 100 µM, the IC50 [4] was ≥ 100 µM and the IC50 [5] was ≥ 100 µM.
With COc1ccc(-c2nc3ccc(-c4nnc(SCC(=O)N5CCN(Cc6ccccc6)CC5)o4)cc3[nH]2)cc1 [5d, 2-((5-(2-(4-Methoxyphenyl)-1H-benzo[d]imidazol-6-yl)-1,3,4-oxadiazol-2-yl)thio)-1-(4-benzylpiperazin-1-yl)ethan-1-one] the IC50 [1] was ≥ 100 µM, the melting point was 172.6 to 174.8 °C and the IC50 [2] was ≥ 100 µM. For the same compound, the IC50 [3] was ≥ 100 µM, the IC50 [4] was 88.5 ± 3.41 µM and the IC50 [5] was ≥ 100 µM.
In the case of CCOc1ccc(-c2nc3ccc(-c4nnc(SCC(=O)N5CCN(Cc6ccc(Cl)cc6)CC5)o4)cc3[nH]2)cc1 [5h, 2-((5-(2-(4-Ethoxyphenyl)-1H-benzo[d]imidazol-6-yl)-1,3,4-oxadiazol-2-yl)thio)-1-(4-(4-chlorobenzyl)piperazin-1-yl)ethan-1-one], the IC50 [1] is reported as ≥ 100 µM, the melting point is reported as 177.5 to 178.4 °C and the IC50 [2] is reported as ≥ 100 µM. For the same compound, the IC50 [3] was ≥ 100 µM, the IC50 [4] was ≥ 100 µM and the IC50 [5] was ≥ 100 µM.
In the case of CCOc1ccc(-c2nc3ccc(-c4nnc(SCC(=O)N5CCN(Cc6ccccc6)CC5)o4)cc3[nH]2)cc1 [5g, 2-((5-(2-(4-Ethoxyphenyl)-1H-benzo[d]imidazol-6-yl)-1,3,4-oxadiazol-2-yl)thio)-1-(4-benzylpiperazin-1-yl)ethan-1-one], the IC50 [1] is reported as ≥ 100 µM, the melting point is reported as 184.4 to 186.8 °C and the IC50 [2] is reported as ≥ 100 µM. The IC50 [3] was ≥ 100 µM, the IC50 [4] was ≥ 100 µM and the IC50 [5] was ≥ 100 µM.
For O=C1Nc2ccccc2C1(c1[nH]c2ccccc2c1CCNS(=O)(=O)c1ccccc1[N+](=O)[O-])c1[nH]c2ccccc2c1CCNS(=O)(=O)c1ccccc1[N+](=O)[O-] [compound 62], the “Experimental pIC50” value (aromatase) is listed as 5.009.
In the case of CCn1cc([C@H](c2ccc(F)cc2)n2cncn2)c2cc(Br)ccc21 [119S], the “Experimental pIC50” value (aromatase) is listed as 6.016.
For COc1ccc(-n2c(Cn3ccnc3)cc3ccc(Cl)cc32)cc1 [compound 26], the “Experimental pIC50” value (aromatase) is listed as 6.692.
For Cc1[nH]c2ccccc2c1C=NNc1cc(F)cc(F)c1 [compound 105], the “Experimental pIC50” value (aromatase) is listed as 4.886.
For CCn1c([C@H](c2ccc(F)cc2)n2ccnc2)c(C)c2ccccc21 [73S], the “Experimental pIC50” value (aromatase) is given as 6.921.
In the case of Cc1ccc2nc(-c3ccc(-c4nnc5n4N=C(c4ccc(F)cc4F)CS5)cc3)[nH]c2c1 [compound 82], the “Experimental pIC50” value (aromatase) is listed as 7.432.
Work on COc1cccc2c1C(=O)c1c(O)c3c(c(O)c1C2=O)C[C@@](O)(C(=O)CO)C[C@@H]3O[C@H]1C[C@H](N)[C@H](O)[C@H](C)O1 [Dox., doxorubicin] yielded an IC50 [4] of 28.7 ± 1.23 µM.
In the case of COc1ccc(S(=O)(=O)NCCc2c(C(c3ccccc3)c3[nH]c4ccccc4c3CCNS(=O)(=O)c3ccc(OC)cc3)[nH]c3ccccc23)cc1 [compound 31], the “Experimental pIC50” value (aromatase) is given as 5.456.
In the case of N#Cc1ccc([C@H](c2ccc3[nH]ccc3c2)n2ccnc2)cc1 [5R], the “Experimental pIC50” value (aromatase) is given as 7.714.
In the case of O=[N+]([O-])c1ccc(S(=O)(=O)NCCc2c(C(c3ccccc3)c3[nH]c4ccccc4c3CCNS(=O)(=O)c3ccc([N+](=O)[O-])cc3)[nH]c3ccccc23)cc1 [compound 30], the “Experimental pIC50” value (aromatase) is listed as 4.951.
In the case of CCn1cc([C@H](c2ccc(F)cc2)n2ccnc2)c2cc(C#N)ccc21 [76S], the “Experimental pIC50” value (aromatase) is listed as 6.495.
In the case of CCn1cc(C(c2ccc(F)cc2)n2cncn2)c2cc(Br)ccc21 (stereo not shown) [123S], the “Experimental pIC50” value (aromatase) is listed as 5.149.
In the case of Clc1ccccc1-n1cc(Cn2cncn2)c2ccccc21 [compound 113], the “Experimental pIC50” value (aromatase) is listed as 5.456.
For O=S(=O)(Cc1ccccc1)NCCc1c[nH]c2ccccc12 [compound 64], the “Experimental pIC50” value (aromatase) is listed as 6.125.
For COc1ccc(S(=O)(=O)NCCc2c(C(c3ccc(O)cc3)c3[nH]c4ccccc4c3CCNS(=O)(=O)c3ccc(OC)cc3)[nH]c3ccccc23)cc1 [compound 46], the “Experimental pIC50” value (aromatase) is given as 6.155.
For N#Cc1ccc(C2=Nn3c(nnc3-c3ccc(-c4nc5ccc(Cl)cc5[nH]4)cc3)SC2)cc1 [compound 103], the “Experimental pIC50” value (aromatase) is given as 5.806.
For Fc1cccc(-n2cc(Cn3ccnc3)c3ccccc32)c1 [compound 115], the “Experimental pIC50” value (aromatase) is given as 5.513.
In the case of Clc1ccccc1-n1cc(Cn2ccnc2)c2ccccc21 [compound 112], the “Experimental pIC50” value (aromatase) is listed as 6.762.
In the case of CCn1cc([C@H](c2ccc(Cl)cc2Cl)n2cccc2)c2cc(Br)ccc21 [118R], the “Experimental pIC50” value (aromatase) is listed as 6.478.
For O=S(=O)(NCCc1c(C(c2ccc(C(F)(F)F)cc2)c2[nH]c3ccccc3c2CCNS(=O)(=O)c2ccc(Cl)cc2)[nH]c2ccccc12)c1ccc(Cl)cc1 [compound 44], the “Experimental pIC50” value (aromatase) is given as 5.495.
In the case of N#Cc1ccc(C(c2ccc3[nH]ccc3c2)n2ccnc2)cc1 (stereo not shown) [5S], the “Experimental pIC50” value (aromatase) is listed as 7.714.
In the case of Cc1[nH]c2ccccc2c1C=NNc1ccc(Cl)cc1 [compound 107], the “Experimental pIC50” value (aromatase) is given as 5.062.
In the case of CCn1cc([C@H](c2ccccc2Cl)n2ccnc2)c2cc(Br)ccc21 [121R], the “Experimental pIC50” value (aromatase) is given as 6.009.
For OCc1cn(-c2cccc(F)c2)c2ccccc12 [compound 110], the “Experimental pIC50” value (aromatase) is given as 7.086.
For COc1ccc(-n2c(Cn3ccnc3)cc3ccc(C)cc32)cc1 [compound 17], the “Experimental pIC50” value (aromatase) is given as 6.858.
